Experimental data reported in PubChem BioAssay (NCI).
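Briefly, cells in 96-well plates were exposed to five compound concentrations for 48 h, and endpoints were estimated by linear interpolation. GI50 = concentration required for 50% inhibition of growth. Definition used: TGI = concentration required for complete inhibition of growth.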

Legend:
Assay in all cases: NCI tumour cell line growth inhibition, 48 h
CAKI-1 renal = test system: CAKI-1 renal
NCI-H226 lung = test system: NCI-H226 lung
A549 NSCLC = test system: A549 NSCLC
SR leukemia = test system: SR leukemia
HS 578T breast = test system: HS 578T breast
HCC-2998 colon = test system: HCC-2998 colon
HOP-62 NSCLC = test system: HOP-62 NSCLC
SF-268 CNS = test system: SF-268 CNS
RPMI-8226 leukemia = test system: RPMI-8226 leukemia
OVCAR-8 ovarian = test system: OVCAR-8 ovarian
HT29 colon = test system: HT29 colon
BT-549 breast = test system: BT-549 breast
K-562 leukemia = test system: K-562 leukemia
SK-MEL-2 melanoma = test system: SK-MEL-2 melanoma
SW-620 colon = test system: SW-620 colon
EKVX NSCLC = test system: EKVX NSCLC
SK-MEL-28 melanoma = test system: SK-MEL-28 melanoma
M14 melanoma = test system: M14 melanoma
COLO 205 colon = test system: COLO 205 colon
ACHN renal = test system: ACHN renal
IGROV1 ovarian = test system: IGROV1 ovarian
LOX IMVI melanoma = test system: LOX IMVI melanoma
HOP-92 NSCLC = test system: HOP-92 NSCLC
HCT-15 colon = test system: HCT-15 colon
NCI-H23 lung = test system: NCI-H23 lung
PC-3 prostate = test system: PC-3 prostate
UO-31 renal = test system: UO-31 renal
TK-10 renal = test system: TK-10 renal
UACC-62 melanoma = test system: UACC-62 melanoma
MOLT-4 leukemia = test system: MOLT-4 leukemia
NCI-H522 lung = test system: NCI-H522 lung
KM12 colon = test system: KM12 colon
HL-60(TB) leukemia = test system: HL-60(TB) leukemia
U251 CNS = test system: U251 CNS
786-0 renal = test system: 786-0 renal
MDA-MB-231 breast = test system: MDA-MB-231 breast
SNB-19 CNS = test system: SNB-19 CNS
HCT-116 colon = test system: HCT-116 colon
MDA-MB-435 = test system: MDA-MB-435
SK-OV-3 ovarian = test system: SK-OV-3 ovarian
UACC-257 melanoma = test system: UACC-257 melanoma
OVCAR-4 ovarian = test system: OVCAR-4 ovarian
SNB-75 CNS = test system: SNB-75 CNS
OVCAR-5 ovarian = test system: OVCAR-5 ovarian
MALME-3M melanoma = test system: MALME-3M melanoma
NCI-H460 lung = test system: NCI-H460 lung
MCF7 breast = test system: MCF7 breast
SN12C renal = test system: SN12C renal
OVCAR-3 ovarian = test system: OVCAR-3 ovarian
DU-145 prostate = test system: DU-145 prostate
T-47D breast = test system: T-47D breast
NCI/ADR-RES ovarian = test system: NCI/ADR-RES ovarian
RXF 393 renal = test system: RXF 393 renal
SF-539 CNS = test system: SF-539 CNS
CCRF-CEM leukemia = test system: CCRF-CEM leukemia
SK-MEL-5 melanoma = test system: SK-MEL-5 melanoma
SF-295 CNS = test system: SF-295 CNS

For Clc1ccc(OCc2nnc3n2N=C(c2ccc(Cl)cc2Cl)CS3)c(Cl)c1, the GI50 (CAKI-1 renal) was 26.6 µM, the TGI (CAKI-1 renal) was 83 µM and the GI50 (NCI-H226 lung) was 17.6 µM. The TGI (NCI-H226 lung) was 43.2 µM, the GI50 (A549 NSCLC) was 28.8 µM and the TGI (A549 NSCLC) was 95.8 µM. It also gave a GI50 (SR leukemia) of 17.3 µM, a TGI (SR leukemia) of 46.5 µM and a GI50 (HS 578T breast) of 29.6 µM. It also gave a TGI (HS 578T breast) of over 100 µM, a GI50 (HCC-2998 colon) of 20.3 µM and a TGI (HCC-2998 colon) of 37.2 µM. It also gave a GI50 (HOP-62 NSCLC) of 27.8 µM, a TGI (HOP-62 NSCLC) of 78.6 µM and a GI50 (SF-268 CNS) of 22.9 µM. The TGI (SF-268 CNS) was 66.5 µM, the GI50 (RPMI-8226 leukemia) was 23.4 µM and the TGI (RPMI-8226 leukemia) was 63.7 µM. It also gave a GI50 (OVCAR-8 ovarian) of 27.7 µM, a TGI (OVCAR-8 ovarian) of 66.2 µM and a GI50 (HT29 colon) of 24.4 µM. It also gave a TGI (HT29 colon) of 83.3 µM, a GI50 (BT-549 breast) of 22.4 µM and a TGI (BT-549 breast) of 59.4 µM. It also gave a GI50 (K-562 leukemia) of 33.4 µM, a TGI (K-562 leukemia) of over 100 µM and a GI50 (SK-MEL-2 melanoma) of 25.1 µM. It also gave a TGI (SK-MEL-2 melanoma) of 57 µM, a GI50 (SW-620 colon) of 31.3 µM and a TGI (SW-620 colon) of over 100 µM. It also gave a GI50 (EKVX NSCLC) of 26.2 µM, a TGI (EKVX NSCLC) of 74.1 µM and a GI50 (SK-MEL-28 melanoma) of 22.6 µM. It also gave a TGI (SK-MEL-28 melanoma) of 57 µM, a GI50 (M14 melanoma) of 22.7 µM and a TGI (M14 melanoma) of 51 µM. For the same compound, the GI50 (COLO 205 colon) was 34.7 µM, the TGI (COLO 205 colon) was over 100 µM and the GI50 (ACHN renal) was 20.5 µM. The TGI (ACHN renal) was 49.9 µM, the GI50 (IGROV1 ovarian) was 20 µM and the TGI (IGROV1 ovarian) was 52.9 µM. The GI50 (LOX IMVI melanoma) was 14.1 µM, the TGI (LOX IMVI melanoma) was 31 µM and the GI50 (HOP-92 NSCLC) was 19.6 µM. For the same compound, the TGI (HOP-92 NSCLC) was 89.2 µM, the GI50 (HCT-15 colon) was 12.7 µM and the TGI (HCT-15 colon) was 33.2 µM. It also gave a GI50 (NCI-H23 lung) of 22.5 µM, a TGI (NCI-H23 lung) of 55.4 µM and a GI50 (PC-3 prostate) of 29.5 µM. For the same compound, the TGI (PC-3 prostate) was over 100 µM, the GI50 (UO-31 renal) was 18.2 µM and the TGI (UO-31 renal) was 47.5 µM. It also gave a GI50 (TK-10 renal) of 25.1 µM, a TGI (TK-10 renal) of over 100 µM and a GI50 (UACC-62 melanoma) of 14.1 µM. For the same compound, the TGI (UACC-62 melanoma) was 32.2 µM, the GI50 (MOLT-4 leukemia) was 22.8 µM and the TGI (MOLT-4 leukemia) was over 100 µM. It also gave a GI50 (NCI-H522 lung) of 14.5 µM, a TGI (NCI-H522 lung) of 37.6 µM and a GI50 (KM12 colon) of 25.5 µM. It also gave a TGI (KM12 colon) of over 100 µM, a GI50 (HL-60(TB) leukemia) of 35.6 µM and a TGI (HL-60(TB) leukemia) of over 100 µM. For the same compound, the GI50 (U251 CNS) was 18.7 µM, the TGI (U251 CNS) was 46.8 µM and the GI50 (786-0 renal) was 28.5 µM. For the same compound, the TGI (786-0 renal) was 98.8 µM, the GI50 (MDA-MB-231 breast) was 14.9 µM and the TGI (MDA-MB-231 breast) was 38.3 µM. It also gave a GI50 (SNB-19 CNS) of 34.3 µM, a TGI (SNB-19 CNS) of over 100 µM and a GI50 (HCT-116 colon) of 15.2 µM. It also gave a TGI (HCT-116 colon) of 32.8 µM, a GI50 (MDA-MB-435) of 24.3 µM and a TGI (MDA-MB-435) of over 100 µM. It also gave a GI50 (SK-OV-3 ovarian) of 43 µM, a TGI (SK-OV-3 ovarian) of over 100 µM and a GI50 (UACC-257 melanoma) of 24 µM. For the same compound, the TGI (UACC-257 melanoma) was 52 µM, the GI50 (OVCAR-4 ovarian) was 28.1 µM and the TGI (OVCAR-4 ovarian) was over 100 µM. For the same compound, the GI50 (SNB-75 CNS) was 12.2 µM, the TGI (SNB-75 CNS) was 48.7 µM and the GI50 (OVCAR-5 ovarian) was 31.4 µM. For the same compound, the TGI (OVCAR-5 ovarian) was over 100 µM, the GI50 (MALME-3M melanoma) was 23.8 µM and the TGI (MALME-3M melanoma) was 79.7 µM. For the same compound, the GI50 (NCI-H460 lung) was 19.3 µM, the TGI (NCI-H460 lung) was 56.3 µM and the GI50 (MCF7 breast) was 22.5 µM. It also gave a TGI (MCF7 breast) of 92.8 µM, a GI50 (SN12C renal) of 14.2 µM and a TGI (SN12C renal) of 32.3 µM. The GI50 (OVCAR-3 ovarian) was 21.2 µM, the TGI (OVCAR-3 ovarian) was 73.1 µM and the GI50 (DU-145 prostate) was 33.6 µM. It also gave a TGI (DU-145 prostate) of over 100 µM, a GI50 (T-47D breast) of 33 µM and a TGI (T-47D breast) of over 100 µM. For the same compound, the GI50 (NCI/ADR-RES ovarian) was 27 µM, the TGI (NCI/ADR-RES ovarian) was 91.6 µM and the GI50 (RXF 393 renal) was 4.08 µM. It also gave a TGI (RXF 393 renal) of 25.4 µM, a GI50 (SF-539 CNS) of 18.7 µM and a TGI (SF-539 CNS) of 38.7 µM. The GI50 (CCRF-CEM leukemia) was 22.3 µM, the TGI (CCRF-CEM leukemia) was 89.7 µM and the GI50 (SK-MEL-5 melanoma) was 15.5 µM. For the same compound, the TGI (SK-MEL-5 melanoma) was 33 µM, the GI50 (SF-295 CNS) was 23.9 µM and the TGI (SF-295 CNS) was 79.7 µM.
COC(=O)/C=C\S/C(=C(/c1ccccc1)n1ccc(C(=O)OC)n1)c1ccccc1 gave a TGI (CAKI-1 renal) of over 100 µM, a TGI (NCI-H226 lung) of over 100 µM and a TGI (A549 NSCLC) of over 100 µM. It also gave a TGI (SR leukemia) of over 100 µM, a TGI (HS 578T breast) of 48 µM and a TGI (HCC-2998 colon) of over 100 µM. The TGI (HOP-62 NSCLC) was 50.4 µM, the TGI (SF-268 CNS) was 39.4 µM and the TGI (RPMI-8226 leukemia) was over 100 µM. The TGI (OVCAR-8 ovarian) was over 100 µM, the TGI (HT29 colon) was over 100 µM and the TGI (BT-549 breast) was over 100 µM. The TGI (K-562 leukemia) was over 100 µM, the TGI (SK-MEL-2 melanoma) was 59.5 µM and the TGI (SW-620 colon) was over 100 µM. The TGI (EKVX NSCLC) was over 100 µM, the TGI (SK-MEL-28 melanoma) was over 100 µM and the TGI (M14 melanoma) was over 100 µM. The TGI (COLO 205 colon) was over 100 µM, the TGI (ACHN renal) was 20.1 µM and the TGI (IGROV1 ovarian) was over 100 µM. It also gave a TGI (LOX IMVI melanoma) of over 100 µM, a TGI (HOP-92 NSCLC) of 86.2 µM and a TGI (HCT-15 colon) of over 100 µM. The TGI (NCI-H23 lung) was over 100 µM, the TGI (PC-3 prostate) was 49.7 µM and the TGI (UO-31 renal) was 38.7 µM. It also gave a TGI (TK-10 renal) of over 100 µM, a TGI (UACC-62 melanoma) of 10.3 µM and a TGI (MOLT-4 leukemia) of over 100 µM. For the same compound, the TGI (NCI-H522 lung) was 48 µM, the TGI (KM12 colon) was over 100 µM and the TGI (HL-60(TB) leukemia) was over 100 µM. For the same compound, the TGI (U251 CNS) was 38.2 µM, the TGI (786-0 renal) was 36.6 µM and the TGI (MDA-MB-231 breast) was 70.9 µM. For the same compound, the TGI (SNB-19 CNS) was 42.2 µM, the TGI (HCT-116 colon) was over 100 µM and the TGI (MDA-MB-435) was over 100 µM. For the same compound, the TGI (SK-OV-3 ovarian) was 50.8 µM, the TGI (UACC-257 melanoma) was over 100 µM and the TGI (OVCAR-4 ovarian) was over 100 µM. For the same compound, the TGI (SNB-75 CNS) was 24 µM, the TGI (OVCAR-5 ovarian) was over 100 µM and the TGI (MALME-3M melanoma) was 43.9 µM. For the same compound, the TGI (NCI-H460 lung) was over 100 µM, the TGI (MCF7 breast) was 28.7 µM and the TGI (SN12C renal) was over 100 µM. It also gave a TGI (T-47D breast) of over 100 µM, a TGI (NCI/ADR-RES ovarian) of over 100 µM and a TGI (RXF 393 renal) of 39.8 µM. For the same compound, the TGI (SF-539 CNS) was over 100 µM, the TGI (SK-MEL-5 melanoma) was over 100 µM and the TGI (SF-295 CNS) was over 100 µM.
